In patent US10213449B2, “Compositions and methods for treating medulloblastoma” (The Board of Trustees of the Leland Stanford Junior …, priority 2016, dated 2019):
Entries after “also recorded” stand apart in the source; their conditions may differ.

How the values were obtained:
[1] = test system: GNP proliferation / cerebellum; assay: CK2 inhibition in developing mouse (cerebellar development); assay type: in vivo; conditions: mice injected with TBB between P3-P7 (30 mg/kg IP bid)
Procedure: The role of CK2 in cerebellar development was next investigated by injecting mice with the CK2 inhibitor TBB between P3-P7 (FIG. 2e).
Math1/nGFPtransgenic mice^8 were treated with DMSO or TBB (30 mg/kg IP bid) (EMD 218697) from […] then sacrificed 6 h following their final treatment. Brains were dissected, fixed in 4% PFA overnight then transferred into 20% sucrose for 24 h. Sections were mounted in O.C.T and sectioned at 20 μm then air-dried for 20 min prior to storing at −20° C. for up to 2 months. Sections were blocked in 0.2% triton X-100 and 2% goat serum diluted in sterile PBS for 1 h at RT. Primary antibodies used were: anti-NeuN Ab (1:200, COT: 2459079, EMD Millipore), anti-Tag1 Ab (1:100, antibody derived in the Scott lab) and TUNEL staining as per manufacturers instructions (Roche In situ Cell Death Detection Kit, cat. no. 1 684 809). All sections were incubated in primary antibody overnight at 4° C. and counter-stained with Hoechst33258 (final concentration 1 μl/ml in PBS) at RT for 10 min. Images were taken on a Leica TCS SP8 confocal microscope. Images were randomized and all measurements (length, width, Atoh-1, Tag1, TUNNEL staining) were performed by a blinded collaborator. Cerebellar folia length was compared between matched sections of control and treated mice by measuring the maximal length from the mid-base to the tip of the culmun (lobule 4/5). Culmen width was measured […] from the base of the folia between lobules 5 and 6. Prism statistical analysis software was used (GraphPad Software, CA) to calculate significance as determined by two-tailed T-tests.

[2] = test system: Hh signaling in NIH 3T3s stimulated with SAG; assay: RT-qPCR of Gli1 in NIH 3T3s stimulated with SAG (epistasis study); assay type: cell-based, mouse; conditions: NIH 3T3s stimulated with SAG; dose-responsive
Procedure: Epistasis studies were next performed to determine where in the hedgehog pathway CK2 acts. The effect of TBB was examined: (i) in NIH 3T3s stimulated with SAG, a SMO agonist, (ii) in Sufu−/− mouse embryonic fibroblasts (MEF), and (iii) in NIH 3T3 cells overexpressing GLI2 (FIG. 3d-3f).
NIH3T3s or SUFU−/− MEFs were plated in 6 well plates at 400,000 cells/well in 10% FBS media constituted of DMEM (Invitrogen11960-069) supplemented with 10% FBS (Hyclone Labs SH30070.02), pen/strep (Life Technologies 15140-122), sodium pyruvate (Invitrogen 11360-070) and glutamax (Invitrogen 35050-061). Cells were then starved in 0.5% FBS for 24 h prior to treatment with 25% ShhN conditioned media in 0.5% FBS+/− drug treatment. GliΔN were treated 48 h post transfection. Unless otherwise stated, all treatments were performed for 6 h. Cell lysis and RNA extraction was performed using Qiashredder homogenizers (Qiagen 79654) and RNEasy mini kits (qiagen 74104) as per manufacturer's instructions. RNA was quantified on a nanodrop spectrophotometer (nanoddrop technologies ND-2000C). Transcript quantification was performed using a TaqMan RNA-to-Ct 1-Step Kit (Life technologies, 4392656) and the Applied Biosystems 7500 RT-PCR system as per the manufacturer's instructions. […]

With `Brc1c(Br)c(Br)c2[nH]nnc2c1Br` [TBB, 4,5,6,7-tetrabromo-2H-benzotriazole] the GNP-dependent foliary width [1] was “decrease”, the apoptosis [1] was “no significant change” and the cerebellar size [1] was “decrease”. The foliary length [1] was “no significant change”, the “number of ATOH-1 positive proliferating GNPs” value [1] was “decrease” and the rate of differentiation [1] was “no significant change”. For the same compound, the “Gli1 mRNA levels (effect of inhibitor)” value [2] was “substantially decreased; also recorded: dose dependent loss of Gli1 expression”.
